Assay results reported in PubChem BioAssay AID330 (DTP/NCI, 2004).
Values joined by “and” are separate entries in the source; they are usually repeats but may differ in a detail not shown here. Identical values can stand only once. Toxic doses and inconclusive results are not listed. Rule for the calls: active = survival T/C of 150% or more; inactive = T/C below 125% in these data.

Test system: P388 leukemia ip, CD2F1 mice, survival T/C
Assay: NCI In Vivo Anticancer Drug Screen. Data for tumor model P388 Leukemia (intraperitoneal) in CD2F1 (CDF1) mice
Conditions: endpoint: median survival time, higher = longer survival
Method in brief: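 Mice carrying the transplanted tumor received test compound or vehicle. Survival was recorded in each group, and the value is the treated-group measurement divided by that of the vehicle-treated control group.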

[1] = dose: 50.0 mg/kg/injection, schedule: Q01DX009 (ip), vehicle: saline with Tween-80
[2] = dose: 100.0 mg/kg/injection, schedule: Q01DX009 (ip), vehicle: saline with Tween-80
[3] = dose: 200.0 mg/kg/injection, schedule: Q01DX009 (ip), vehicle: saline with Tween-80
[4] = dose: 12.5 mg/kg/injection, schedule: Q01DX005 (ip), vehicle: Klucel (hydroxypropylcellulose) (HPC)
[5] = dose: 25.0 mg/kg/injection, schedule: Q01DX005 (ip), vehicle: Klucel (hydroxypropylcellulose) (HPC)
[6] = dose: 50.0 mg/kg/injection, schedule: Q01DX005 (ip), vehicle: Klucel (hydroxypropylcellulose) (HPC)
[7] = dose: 50.0 mg/kg/injection, schedule: Q01DX009 (ip), vehicle: Klucel (hydroxypropylcellulose) (HPC)
[8] = dose: 100.0 mg/kg/injection, schedule: Q01DX005 (ip), vehicle: Klucel (hydroxypropylcellulose) (HPC)
[9] = dose: 100.0 mg/kg/injection, schedule: Q01DX009 (ip), vehicle: Klucel (hydroxypropylcellulose) (HPC)
[10] = dose: 200.0 mg/kg/injection, schedule: Q01DX009 (ip), vehicle: Klucel (hydroxypropylcellulose) (HPC)
[11] = dose: 6.25 mg/kg/injection, schedule: Q01DX009 (ip), vehicle: saline
[12] = dose: 60.0 mg/kg/injection, schedule: Q01DX005 (ip), vehicle: saline with Tween-80
[13] = dose: 120.0 mg/kg/injection, schedule: Q01DX005 (ip), vehicle: saline with Tween-80
[14] = dose: 240.0 mg/kg/injection, schedule: Q01DX005 (ip), vehicle: saline with Tween-80

Measured: T/C

CCCCCCC(=O)/C=C/c1cc(OC)ccc1OC
inactive: dose: 12.5 mg/kg/injection, schedule: Q01DX009 (ip), vehicle: saline with Tween-80 100 % of control | dose: 25.0 mg/kg/injection, schedule: Q01DX009 (ip), vehicle: saline with Tween-80 99 % of control | [1] 99 % of control | [2] 99 % of control and 96 % of control | [3] 97 % of control

CN(c1ccc(C2=NCCN2)cc1)S(=O)(=O)c1ccc(Oc2ccc(S(=O)(=O)N(C)c3ccc(C4=NCCN4)cc3)cc2)cc1
inactive: dose: 6.25 mg/kg/injection, schedule: Q01DX005 (ip), vehicle: Klucel (hydroxypropylcellulose) (HPC) 100 % of control | [4] 100 % of control | [5] 109 % of control

CONC(=O)N/N=C/c1c(CO)cnc(C)c1O
inactive: [4] 104 % of control | [5] 100 % of control | [6] 94 % of control

CN(CCO)c1n[nH]c(=O)c2ccccc12
inactive: [1] 109 % of control | [2] 101 % of control | [3] 101 % of control

O=C1C(=O)c2c(ccc3ccccc23)-c2ccccc21
inactive: [6] 100 % of control | [7] 104 % of control | [8] 97 % of control | [9] 100 % of control | dose: 200.0 mg/kg/injection, schedule: Q01DX005 (ip), vehicle: Klucel (hydroxypropylcellulose) (HPC) 104 % of control | [10] 86 % of control | dose: 400.0 mg/kg/injection, schedule: Q01DX009 (ip), vehicle: Klucel (hydroxypropylcellulose) (HPC) 94 % of control

CCOC(=O)N1CCN(c2ccc(/C=C\c3cccc(/C=C\c4ccc(N5CCN(C(=O)OCC)CC5)cc4)[n+]3C)cc2)CC1
inactive: dose: 3.12 mg/kg/injection, schedule: Q01DX009 (ip), vehicle: saline 118 % of control | [11] 111 % of control

COC1NC(=O)Oc2c(F)cccc21 (stereo unspecified)
inactive: dose: 12.5 mg/kg/injection, schedule: Q01DX009 (ip), vehicle: Klucel (hydroxypropylcellulose) (HPC) 100 % of control | dose: 25.0 mg/kg/injection, schedule: Q01DX009 (ip), vehicle: Klucel (hydroxypropylcellulose) (HPC) 95 % of control | [7] 99 % of control | [9] 95 % of control | [10] 104 % of control

C(=C\c1cc2ccc(C3=NCCN3)cc2o1)/c1cc2ccc(C3=NCCN3)cc2o1
inactive: dose: 12.5 mg/kg/injection, schedule: Q04DX003 (ip), vehicle: suspension in saline 107 % of control | dose: 25.0 mg/kg/injection, schedule: Q04DX003 (ip), vehicle: suspension in saline 114 % of control | dose: 50.0 mg/kg/injection, schedule: Q04DX003 (ip), vehicle: suspension in saline 106 % of control | dose: 100.0 mg/kg/injection, schedule: Q04DX003 (ip), vehicle: suspension in saline 122 % of control

CCOC(=O)c1c(N)sc2c1CCCC2
inactive: dose: 50.0 mg/kg/injection, schedule: Q04DX003 (ip), vehicle: saline with Tween-80 101 % of control | dose: 100.0 mg/kg/injection, schedule: Q01DX001 (ip), vehicle: saline sonified 100 % of control | dose: 100.0 mg/kg/injection, schedule: Q04DX003 (ip), vehicle: saline with Tween-80 108 % of control | dose: 200.0 mg/kg/injection, schedule: Q01DX001 (ip), vehicle: saline sonified 100 % of control | dose: 200.0 mg/kg/injection, schedule: Q04DX003 (ip), vehicle: saline with Tween-80 105 % of control | dose: 400.0 mg/kg/injection, schedule: Q01DX001 (ip), vehicle: saline sonified 100 % of control | dose: 400.0 mg/kg/injection, schedule: Q04DX003 (ip), vehicle: saline with Tween-80 101 % of control

CC(=N/NC(=S)NCCN1CCCCC1)/C(C)=N\NC(=S)NCCN1CCCCC1
inactive: dose: 0.78 mg/kg/injection, schedule: Q01DX009 (ip), vehicle: saline 106 % of control | dose: 1.56 mg/kg/injection, schedule: Q01DX009 (ip), vehicle: saline 94 % of control | dose: 3.13 mg/kg/injection, schedule: Q01DX009 (ip), vehicle: saline 97 % of control | [11] 103 % of control | dose: 12.5 mg/kg/injection, schedule: Q04DX003 (ip), vehicle: saline with Tween-80 108 % of control | dose: 25.0 mg/kg/injection, schedule: Q04DX003 (ip), vehicle: saline with Tween-80 101 % of control

COc1cc2oc(=O)ccc2cc1[C@@H]1OC(=O)C2(C)O[C@@H]12 (stereo partly specified)
inactive: dose: 2.5 mg/kg/injection, schedule: Q01DX009 (ip), vehicle: saline 112 % of control | dose: 5.0 mg/kg/injection, schedule: Q01DX009 (ip), vehicle: saline 93 % of control | dose: 6.0 mg/kg/injection, schedule: Q01DX009 (ip), vehicle: Klucel (hydroxypropylcellulose) (HPC) 107 % of control | dose: 6.0 mg/kg/injection, schedule: Q01DX009 (ip), vehicle: saline with Tween-80 110 % of control | dose: 8.0 mg/kg/injection, schedule: Q01DX009 (ip), vehicle: Klucel (hydroxypropylcellulose) (HPC) 114 % of control | dose: 8.0 mg/kg/injection, schedule: Q01DX009 (ip), vehicle: saline with Tween-80 117 % of control | dose: 10.0 mg/kg/injection, schedule: Q01DX009 (ip), vehicle: Klucel (hydroxypropylcellulose) (HPC) 105 % of control | dose: 10.0 mg/kg/injection, schedule: Q01DX009 (ip), vehicle: saline with Tween-80 110 % of control | dose: 12.0 mg/kg/injection, schedule: Q01DX009 (ip), vehicle: Klucel (hydroxypropylcellulose) (HPC) 103 % of control | dose: 12.0 mg/kg/injection, schedule: Q01DX009 (ip), vehicle: saline with Tween-80 110 % of control

Cc1ccccc1CN1CC2=C(CCN(Cc3ccccc3)C2=O)N2CCN=C12
inactive: dose: 50.0 mg/kg/injection, schedule: Q01DX005 (ip), vehicle: saline with Tween-80 96 % of control | dose: 100.0 mg/kg/injection, schedule: Q01DX005 (ip), vehicle: saline with Tween-80 96 % of control | dose: 200.0 mg/kg/injection, schedule: Q01DX005 (ip), vehicle: saline with Tween-80 100 % of control

O=C1NN2CCCN=C2c2ncccc21
inactive: [12] 104 % of control | [13] 103 % of control | [14] 108 % of control

O=C1CCOCCCOCCC(=O)OCCCOC(=O)CCOCCCOCCC(=O)OCCCO1
inactive: [6] 100 % of control | [8] 105 % of control

[N-]=[N+]=N/C=C1\CCOC1=O
inactive: dose: 7.5 mg/kg/injection, schedule: Q01DX005 (ip), vehicle: saline with Tween-80 101 % of control | dose: 15.0 mg/kg/injection, schedule: Q01DX005 (ip), vehicle: saline with Tween-80 100 % of control | dose: 30.0 mg/kg/injection, schedule: Q01DX005 (ip), vehicle: saline with Tween-80 99 % of control and 100 % of control | [14] 99 % of control

Cc1nc(N)[nH]c(=O)c1-c1ccc(Cl)cc1
inactive: dose: 100.0 mg/kg/injection, schedule: Q04DX003 (ip), vehicle: Klucel (hydroxypropylcellulose) (HPC) 106 % of control | dose: 200.0 mg/kg/injection, schedule: Q04DX003 (ip), vehicle: Klucel (hydroxypropylcellulose) (HPC) 105 % of control | dose: 400.0 mg/kg/injection, schedule: Q04DX003 (ip), vehicle: Klucel (hydroxypropylcellulose) (HPC) 99 % of control

O=C(CC(=O)N1CCN(c2ccccn2)CC1)N1CCN(c2ccccn2)CC1
inactive: dose: 50.0 mg/kg/injection, schedule: Q01DX009 (ip), vehicle: saline 101 % of control | dose: 100.0 mg/kg/injection, schedule: Q01DX009 (ip), vehicle: saline 102 % of control

CCOC(=O)Nn1c(C)c(C(N)=O)c(C(=O)OC)c1C
inactive: [12] 100 % of control | [13] 96 % of control | [14] 103 % of control

CCOC(=O)C(Cc1ccccc1)P(=O)(OCC)OCC (stereo unspecified)
inactive: dose: 100.0 mg/kg/injection, schedule: Q01DX001 (ip), vehicle: saline 95 % of control | dose: 200.0 mg/kg/injection, schedule: Q01DX001 (ip), vehicle: saline 100 % of control | dose: 400.0 mg/kg/injection, schedule: Q01DX001 (ip), vehicle: saline 91 % of control

COc1cccc2c1S(=O)(=O)C(c1ccccc1)=CC2=O
inactive: dose: 60.0 mg/kg/injection, schedule: Q01DX005 (ip), vehicle: Klucel (hydroxypropylcellulose) (HPC) 105 % of control | dose: 120.0 mg/kg/injection, schedule: Q01DX005 (ip), vehicle: Klucel (hydroxypropylcellulose) (HPC) 105 % of control | dose: 240.0 mg/kg/injection, schedule: Q01DX005 (ip), vehicle: Klucel (hydroxypropylcellulose) (HPC) 120 % of control
